Measured values published in ChEMBL document CHEMBL1641565, “Discovery and optimisation of a selective non-steroidal glucocorticoid receptor antagonist” (Bioorg Med Chem Lett, 2011).
≈ marks a conversion by molar mass, not a printed value.

Experiments:
[1] = target: T1, Glucocorticoid receptor (Homo sapiens, UniProt P04150); assay: Binding affinity to human recombinant GR by competition ligand binding fluorescence polarization assay
T1 sequence (P04150 whole entry): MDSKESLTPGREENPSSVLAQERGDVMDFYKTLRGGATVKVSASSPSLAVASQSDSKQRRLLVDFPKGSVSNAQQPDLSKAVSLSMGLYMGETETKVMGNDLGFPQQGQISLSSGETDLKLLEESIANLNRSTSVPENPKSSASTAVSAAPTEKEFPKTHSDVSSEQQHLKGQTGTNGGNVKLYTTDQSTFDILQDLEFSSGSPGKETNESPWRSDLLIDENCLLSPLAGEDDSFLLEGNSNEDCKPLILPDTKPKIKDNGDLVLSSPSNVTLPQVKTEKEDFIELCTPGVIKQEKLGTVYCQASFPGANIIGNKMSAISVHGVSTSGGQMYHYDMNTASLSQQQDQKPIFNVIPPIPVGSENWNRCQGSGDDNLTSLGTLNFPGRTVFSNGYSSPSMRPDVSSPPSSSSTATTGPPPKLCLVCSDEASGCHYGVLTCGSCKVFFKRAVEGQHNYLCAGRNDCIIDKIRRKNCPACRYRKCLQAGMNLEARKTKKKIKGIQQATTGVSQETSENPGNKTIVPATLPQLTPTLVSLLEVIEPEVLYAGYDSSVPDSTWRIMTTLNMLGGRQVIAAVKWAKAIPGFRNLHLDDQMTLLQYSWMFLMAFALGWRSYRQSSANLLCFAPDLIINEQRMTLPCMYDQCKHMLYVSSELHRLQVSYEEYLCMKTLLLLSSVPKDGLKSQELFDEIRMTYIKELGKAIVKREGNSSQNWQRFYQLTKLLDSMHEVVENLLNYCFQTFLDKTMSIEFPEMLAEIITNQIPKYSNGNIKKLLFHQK

[2] = target: T2, Progesterone receptor (Homo sapiens, UniProt P06401); assay: Binding affinity to human recombinant PR by competition ligand binding fluorescence polarization assay
T2 sequence (P06401 whole entry): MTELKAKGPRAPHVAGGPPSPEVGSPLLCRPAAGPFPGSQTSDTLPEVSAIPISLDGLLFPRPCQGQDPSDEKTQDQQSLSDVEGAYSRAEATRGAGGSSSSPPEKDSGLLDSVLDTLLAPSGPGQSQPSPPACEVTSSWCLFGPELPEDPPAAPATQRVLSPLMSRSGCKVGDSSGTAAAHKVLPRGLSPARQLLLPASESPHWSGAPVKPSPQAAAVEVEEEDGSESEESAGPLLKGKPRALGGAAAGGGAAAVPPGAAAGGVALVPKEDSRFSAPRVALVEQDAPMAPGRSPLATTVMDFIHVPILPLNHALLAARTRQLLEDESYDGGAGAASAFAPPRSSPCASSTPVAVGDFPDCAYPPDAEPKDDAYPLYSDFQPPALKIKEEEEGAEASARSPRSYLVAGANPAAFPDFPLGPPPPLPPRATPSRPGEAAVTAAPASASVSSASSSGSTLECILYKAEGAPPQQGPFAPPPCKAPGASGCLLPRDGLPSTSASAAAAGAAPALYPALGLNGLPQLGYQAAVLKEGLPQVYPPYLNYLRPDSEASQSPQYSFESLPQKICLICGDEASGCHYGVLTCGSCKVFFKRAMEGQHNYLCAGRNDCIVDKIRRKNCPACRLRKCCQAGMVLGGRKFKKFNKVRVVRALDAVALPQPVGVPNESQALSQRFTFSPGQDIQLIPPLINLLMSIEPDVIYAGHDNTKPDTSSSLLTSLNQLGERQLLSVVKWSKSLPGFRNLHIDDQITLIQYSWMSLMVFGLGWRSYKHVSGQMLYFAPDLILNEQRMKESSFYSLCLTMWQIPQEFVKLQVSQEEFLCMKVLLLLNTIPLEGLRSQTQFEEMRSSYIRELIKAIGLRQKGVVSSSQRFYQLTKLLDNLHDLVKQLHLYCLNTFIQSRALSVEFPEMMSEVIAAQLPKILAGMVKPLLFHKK

[3] = Intrinsic clearance in human liver microsomes measured per mg of protein; assay type: ADME, Microsome
[4] = Volume of distribution at steady state in Wistar rat at 2 mg/kg, iv; 10 mg/kg, po; assay type: ADME, organism-based; conditions: in vivo, read-out: Vdss
[5] = Intrinsic clearance in rat liver microsomes measured per mg of protein; assay type: ADME, Microsome
[6] = Oral bioavailability in Wistar rat at 10 mg/kg; assay type: ADME, organism-based; conditions: in vivo
[7] = Plasma clearance in Wistar rat at 2 mg/kg, iv; 10 mg/kg, po; assay type: ADME, organism-based
[8] = Solubility of the compound in PBS at pH 7.4; assay type: physicochemical
[9] = target: T1, Glucocorticoid receptor; assay: Antagonist activity at human GR […] domain transfected in CHO cells co-transfected with MMTV-luciferase gene assessed as inhibition of cortisol-induced luciferase activity; assay type: cell-based
[10] = target: T3, Mineralocorticoid receptor (Homo sapiens, UniProt P08235); assay: Antagonist activity at human MR ligand binding domain transfected in CHO cells co-transfected with MMTV-luciferase gene assessed as inhibition of cortisol-induced luciferase activity; assay type: cell-based
T3 sequence (P08235 whole entry): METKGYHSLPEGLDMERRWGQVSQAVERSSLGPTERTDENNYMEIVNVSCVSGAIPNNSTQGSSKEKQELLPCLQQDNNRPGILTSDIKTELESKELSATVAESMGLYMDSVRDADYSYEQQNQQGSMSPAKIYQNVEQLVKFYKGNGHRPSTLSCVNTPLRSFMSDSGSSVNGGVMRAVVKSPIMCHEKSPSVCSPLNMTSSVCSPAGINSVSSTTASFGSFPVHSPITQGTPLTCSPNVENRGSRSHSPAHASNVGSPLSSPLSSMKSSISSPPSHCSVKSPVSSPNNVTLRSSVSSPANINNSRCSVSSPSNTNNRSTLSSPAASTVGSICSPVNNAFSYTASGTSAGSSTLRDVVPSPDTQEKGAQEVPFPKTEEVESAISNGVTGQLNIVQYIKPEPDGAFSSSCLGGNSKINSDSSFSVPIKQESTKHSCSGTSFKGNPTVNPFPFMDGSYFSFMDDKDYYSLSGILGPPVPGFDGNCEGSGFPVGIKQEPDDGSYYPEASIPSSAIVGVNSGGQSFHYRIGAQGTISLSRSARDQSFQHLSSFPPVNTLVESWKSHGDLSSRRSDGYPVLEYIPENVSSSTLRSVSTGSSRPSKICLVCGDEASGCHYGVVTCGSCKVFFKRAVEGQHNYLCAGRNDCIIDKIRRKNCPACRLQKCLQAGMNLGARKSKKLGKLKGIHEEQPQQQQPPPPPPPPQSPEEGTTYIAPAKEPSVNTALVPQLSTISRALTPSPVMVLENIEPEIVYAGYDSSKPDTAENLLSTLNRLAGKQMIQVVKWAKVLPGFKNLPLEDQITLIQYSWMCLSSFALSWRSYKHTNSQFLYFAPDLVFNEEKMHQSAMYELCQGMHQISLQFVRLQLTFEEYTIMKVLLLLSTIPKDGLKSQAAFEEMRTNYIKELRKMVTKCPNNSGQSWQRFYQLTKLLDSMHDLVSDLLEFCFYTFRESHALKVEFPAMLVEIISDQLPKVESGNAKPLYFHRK

EC50 [1] | EC50 [2] | SMILES | further results
5.01 nM | 200 nM | COc1ccc(F)cc1-c1ccc([C@@H](C)NS(=O)(=O)c2c(C)noc2C)cc1 | 
3.98 nM | 7.94 nM | Cc1noc(C)c1-c1ccc(CNS(=O)(=O)c2c(C)noc2C)cc1 | 
1000 nM | > 10000 nM | Cc1noc(C)c1S(=O)(=O)NCc1ccc(-c2ccccc2)cc1 | 
31.6 nM | 200 nM | COc1ccccc1-c1ccc(CNS(=O)(=O)c2c(C)noc2C)cc1 | 
12.6 nM | 126 nM | COc1ccc(F)cc1-c1ccc(CNS(=O)(=O)c2c(C)noc2C)cc1 | 
2 nM | 50.1 nM | COc1ccc(F)cc1-c1ccc(CNS(=O)(=O)c2cc(Cl)ccc2Cl)cc1 | 
25.1 nM | 251 nM | COc1ccc(F)cc1-c1ccc([C@H](C)NS(=O)(=O)c2c(C)noc2C)cc1 | 
25.1 nM | 794 nM | COc1ncccc1-c1ccc([C@@H](C)NS(=O)(=O)c2c(C)noc2C)cc1 | 
10 nM | 631 nM | Cc1noc(C)c1S(=O)(=O)N[C@H](C)c1ccc(-c2cccnc2OC(F)F)cc1 | microsomal CLint [3]: > 270 µL/min/mg
6.31 nM | 79.4 nM | COc1ncc(C#N)cc1-c1ccc([C@@H](C)NS(=O)(=O)c2c(C)noc2C)cc1 | 
3.98 nM | 794 nM | COc1ccc(F)cc1-c1ccc([C@@H](C)NS(=O)(=O)c2cn(C)nc2C(F)(F)F)cc1 | 
12.6 nM | > 10000 nM | COc1ncccc1-c1ccc([C@@H](C)NS(=O)(=O)c2cn(C)nc2C(F)(F)F)cc1 | 
12.6 nM | > 10000 nM | COc1ncc(C#N)cc1-c1ccc([C@@H](C)NS(=O)(=O)c2cn(C)nc2C(F)(F)F)cc1 | Vd [4]: 0.7 L/kg; microsomal CLint [5]: < 12 µL/min/mg; bioavailability [6]: 42%; clearance [7]: 9.8 mL/min/kg; solubility [8]: 28.9 µg/mL (≈ 62.1 µM); EC50 [9]: 100 nM; EC50 [10]: > 10000 nM; microsomal CLint [3]: < 12 µL/min/mg
